Marks after values point to notes of the source that are not given here.
Tests used:
[1] = tested on: Phakopsora pachyrhizi (the causal agent of Asian soybean rust); test: Test F: Compound 32 or 64 alone and in mixtures on soybean seedlings, observed (Obsd) and Colby expected (Exp) disease control; assay type: in vivo; settings: for pest or weed control at 1.422 ppm: Compound 32 1.422 ppm alone; for pest or weed control at 2.276 ppm: Compound 32 2.276 ppm alone
[2] = tested on: Uncinula necator (the causal agent of grape powdery mildew); test: Test C: preventive spray on grape seedlings, disease rating (100 = 100% control; * 50 ppm, ** 10 ppm, *** 250 ppm); assay type: in vivo; settings: 100 = 100% disease control; for pest or weed control at 250 ppm / Test C disease control rating: 250 ppm test suspension, 0 = no control
Method in brief: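 Grape seedlings sprayed to run-off with compound suspended in acetone/water (50/50) with 250 ppm PEG400, then inoculated next day with Uncinula necator spores. Kept at 20 °C for 12 days before disease rating, where 100 is full control and 0 none, relative to untreated controls.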

[3] = tested on: Puccinia recondita f. sp. tritici (the causal agent of wheat leaf rust); test: Test B: preventive spray on wheat seedlings, disease rating (100 = 100% control; * 50 ppm, ** 10 ppm, *** 250 ppm); assay type: in vivo; settings: 100 = 100% disease control; for pest or weed control at 50 ppm / pest or weed control at 10 ppm: Puccinia recondita
Method in brief: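 Preventive test: Puccinia recondita f. sp. tritici spores were inoculated one day after run-off spraying of wheat seedlings with test suspension (acetone/water 50/50, 250 ppm PEG400). After 24 h in saturated air and 6 days in a growth chamber, both at 20° C, control was scored 0–100 versus untreated plants.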

[4] = tested on: Zymoseptoria tritici (the causal agent of wheat leaf blotch); test: Test D: preventive spray on wheat seedlings, disease rating (100 = 100% control; * 50 ppm, ** 10 ppm, *** 250 ppm); assay type: in vivo; settings: 250 ppm test suspension, 100 = 100% disease control; for pest or weed control at 250 ppm: Zymoseptoria tritici
Method in brief: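 Compounds first dissolved in acetone (3% of final volume), then suspended in 50/50 acetone/water with 250 ppm PEG400 and sprayed to run-off on wheat seedlings; Z. tritici spores inoculated next day. Incubated saturated at 24° C. 48 h, then 20° C. 17 days; disease control rated 0–100 versus controls.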

[5] = tested on: Blumeria graminis f. sp. tritici (the causal agent of wheat powdery mildew); test: Test E: preventive spray on wheat seedlings, visual disease rating (100 = 100% control; * 50 ppm, ** 10 ppm, *** 250 ppm); assay type: in vivo; settings: 250 ppm test suspension, 100 = 100% disease control; for pest or weed control at 250 ppm: Blumeria graminis
Method in brief: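 Test suspension (3% acetone, acetone/water 50/50, 250 ppm PEG400) sprayed to run-off on wheat seedlings; inoculated next day with powdery mildew spore dust and kept 8 days at 20 °C. Visual rating, 100 = full and 0 = no control relative to untreated.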

[6] = tested on: Phakopsora pachyrhizi (the causal agent of Asian soybean rust); test: Test A: preventive spray on soybean seedlings, visual disease rating (100 = 100% control; * 50 ppm, ** 10 ppm, *** 250 ppm); assay type: in vivo; settings: 100 = 100% disease control, 0 = no control
Method in brief: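 Preventive test: one day after spraying compound (acetone/water suspension, 250 ppm PEG400), seedlings received rust spore inoculum, 24 h in saturated air then 8 days in growth chamber, both at 22 °C. Disease control scored visually, 100 = complete, 0 = none, relative to untreated controls.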

[7] = Phakopsora pachyrhizi, Table B-1
[8] = Phakopsora pachyrhizi, Table C-1
[9] = Phakopsora pachyrhizi, Table D-1
[10] = Phakopsora pachyrhizi, Table F-1
[11] = Phakopsora pachyrhizi, Table G-1
[12] = Phakopsora pachyrhizi, Table H-1
[13] = Phakopsora pachyrhizi, Table I-1
[14] = 10 ppm test suspension, wheat seedlings
[15] = 50 ppm test suspension, 0 = no control
[16] = Phakopsora pachyrhizi, 10 ppm test suspension
[17] = 10 ppm test suspension, 0 = no control

CCOC(=O)c1cnn(Cc2ccc(OCC3(C(F)(F)F)OCCO3)cc2)c1 [Compound 32, ethyl 1-[[4-[[2-(trifluoromethyl)-1,3-dioxolan-2-yl]methoxy]phenyl]methyl]-1H-pyrazole-4-carboxylate]
pest or weed control at 1.422 ppm ([1]; Table E-1): 78% | pest or weed control at 2.276 ppm ([1]; Table E-1): 80% | pest or weed control at 1.422 ppm [1, 7]: 55% | pest or weed control at 1.422 ppm [1, 8]: 39% | pest or weed control at 1.422 ppm [1, 9]: 52% | pest or weed control at 1.422 ppm [1, 10]: 75% | pest or weed control at 1.422 ppm [1, 11]: 39% | pest or weed control at 1.422 ppm [1, 12]: 69% | pest or weed control at 1.422 ppm [1, 13]: 63% | pest or weed control at 2.276 ppm [1, 7]: 64% | pest or weed control at 2.276 ppm [1, 8]: 44% | pest or weed control at 2.276 ppm [1, 9]: 60% | pest or weed control at 2.276 ppm [1, 10]: 77% | pest or weed control at 2.276 ppm [1, 11]: 61% | pest or weed control at 2.276 ppm [1, 12]: 63% | pest or weed control at 2.276 ppm [1, 13]: 71% | pest or weed control at 10 ppm ([2]; Erysiphe necator, 10 ppm test suspension (**), grape seedlings): 100% | pest or weed control at 50 ppm ([3]; 50 ppm test suspension, wheat seedlings): 68% | pest or weed control at 250 ppm ([4]; wheat seedlings): 89% | pest or weed control at 250 ppm ([5]; wheat seedlings): 97%

O=C(NCC1CC1)c1csc(Cc2ccc(OCC3(C(F)(F)F)OCCO3)cc2)n1 [Compound 71, N-(cyclopropylmethyl)-2-[[4-[[2-(trifluoromethyl)-1,3-dioxolan-2-yl]methoxy]phenyl]-methyl]thiazole-4-carboxamide]
melting point: 88 to 92 °C | pest or weed control at 10 ppm [3, 14]: 96%

CCO/C(=C\Oc1ccc(Cn2cc(C(=O)OCc3ccccc3)cn2)cc1)C(F)(F)F [Compound 186, phenylmethyl 1-[[4-[[(1Z)-2-ethoxy-3,3,3-trifluoro-1-propen-1-yl]oxy]phenyl]methyl]-1H-pyrazole-4-carboxylate]
melting point: 63 to 67 °C | pest or weed control at 10 ppm [3, 14]: 0% | pest or weed control at 250 ppm ([4]; wheat seedlings): 9% | pest or weed control at 250 ppm ([5]; wheat seedlings): 84%

CCOC(=O)c1cnn(Cc2cnn(CC(O)(O)C(F)(F)F)c2)c1 [compound 368]
melting point: 81 to 84 °C | pest or weed control at 50 ppm ([6]; Phakopsora pachyrhizi, 50 ppm test suspension): 0% | pest or weed control at 250 ppm ([2]; Erysiphe necator): 33% | pest or weed control at 50 ppm [3, 15]: 0% | pest or weed control at 250 ppm ([4]; 0 = no control): 0% | pest or weed control at 250 ppm ([5]; 0 = no control): 0%

OC(O)(COc1cccc(Cn2cc(Br)cn2)c1)C(F)(F)F [compound 386]
melting point: 83.7 to 86.5 °C | pest or weed control at 10 ppm [6, 16]: 84% | pest or weed control at 10 ppm [3, 17]: 19%

CCOC(=O)c1cnn(Cc2c(F)c(F)c(OCC3(C(F)(F)F)OCCO3)c(F)c2F)c1 [compound 392]
melting point: 59 to 62 °C | pest or weed control at 10 ppm [6, 16]: 97% | pest or weed control at 10 ppm [3, 17]: 19%

CCOC(=O)c1cnn(Cc2ccc(O/C=C(\OCC)C(F)(F)F)c(F)c2F)c1 [compound 430]
Test A disease control rating ([6]; 50 ppm test suspension): 100% | Test C disease control rating [2]: 82*** % | Test B disease control rating [3, 15]: 0% | Test D disease control rating ([4]; 0 = no control): 3*** % | Test E disease control rating ([5]; 0 = no control): 99*** %

CCO/C(=C\Oc1ccc(Cn2cc(C(=O)NCc3ncccn3)cn2)cc1)C(F)(F)F [compound 435]
Test A disease control rating ([6]; 50 ppm test suspension): 96% | Test C disease control rating [2]: 45*** % | Test B disease control rating [3, 15]: 0% | Test D disease control rating ([4]; 0 = no control): 5*** % | Test E disease control rating ([5]; 0 = no control): 81*** %

CCNC(=O)c1cnn(Cc2ccc(O/C=C(\OCC)C(F)(F)F)cc2)c1 [compound 437]
Test A disease control rating ([6]; 50 ppm test suspension): 77% | Test C disease control rating [2]: 77*** % | Test B disease control rating [3, 15]: 0% | Test D disease control rating ([4]; 0 = no control): 78*** % | Test E disease control rating ([5]; 0 = no control): 69*** %

CCO/C(=C\Oc1ccc(Cn2cc(C(=O)N(CC)CC)cn2)cc1)C(F)(F)F [compound 438]
Test A disease control rating ([6]; 50 ppm test suspension): 73% | Test C disease control rating [2]: 59*** % | Test B disease control rating [3, 15]: 0% | Test D disease control rating ([4]; 0 = no control): 26*** % | Test E disease control rating ([5]; 0 = no control): 98*** %

CCOC(=O)c1cnn(CSc2ccc(O/C=C(\OCC)C(F)(F)F)cc2)c1 [compound 457]
pest or weed control at 10 ppm [6, 16]: 89% | pest or weed control at 250 ppm ([2]; Erysiphe necator): 73% | pest or weed control at 10 ppm [3, 17]: 0% | pest or weed control at 250 ppm ([4]; 0 = no control): 7% | pest or weed control at 250 ppm ([5]; 0 = no control): 0%

CCOC(=O)c1cnn(Cc2ccc(O/C=C(\OCC)C(F)(F)F)c(Cl)c2)c1 [compound 458]
Test A disease control rating ([6]; 10 ppm test suspension): 100% | Test C disease control rating [2]: 25*** % | Test B disease control rating [3, 17]: 0% | Test D disease control rating ([4]; 0 = no control): 41*** % | Test E disease control rating ([5]; 0 = no control): 94*** %

CCOC(=O)c1cnn(Cc2c(F)c(F)c(O/C=C(\OCC)C(F)(F)F)c(F)c2F)c1 [compound 464]
Test A disease control rating ([6]; 50 ppm test suspension): 100% | Test C disease control rating [2]: 73*** % | Test B disease control rating [3, 15]: 0% | Test D disease control rating ([4]; 0 = no control): 4*** % | Test E disease control rating ([5]; 0 = no control): 99*** %
